According to patent US11370774B2, “Substituted benzofuran, benzopyrrole, benzothiophene, and structurally related complement inhibitors” (BioCryst Pharmaceuticals, Inc., priority 2018, dated 2022):

Target: Factor D (Homo sapiens (Human), UniProt P00746)
Assay: Factor D esterolytic assay (Z-Lys-SBzl substrate, DTNB, 405 nm)
Format: biochemical
Details: Z-Lys-SBzl 1.29 mM, pH 7.5, 10% DMSO, tested a minimum of three times, read-out: Measured Ki (IC50) Value for Compounds: IC50
Outline: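 Thioester hydrolysis (Z-Lys-SBzl, 1.29 mM) by human Factor D ([…]) detected through DTNB color at 405 nm over 600 sec, minus 690 nm background. Buffer: 100 mM HEPES pH 7.5, 500 mM NaCl, 10% DMSO; optional room-temperature preincubation before substrate. IC50 derived from percent rate inhibition; at least three runs.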

Sequence of Factor D (P00746 26-253): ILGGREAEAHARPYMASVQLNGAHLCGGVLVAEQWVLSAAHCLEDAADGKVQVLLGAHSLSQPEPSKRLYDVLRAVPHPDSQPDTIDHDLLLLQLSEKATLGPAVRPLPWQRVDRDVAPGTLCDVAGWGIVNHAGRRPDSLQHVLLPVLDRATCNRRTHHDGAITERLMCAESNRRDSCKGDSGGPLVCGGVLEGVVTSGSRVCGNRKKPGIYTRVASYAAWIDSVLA

**Q.** With `NCc1nccc(-c2cc(COc3ccc(F)cc3CC(=O)O)c(F)c3ccoc23)c1F` [Compound 388d, 2-(2-((7-(2-(aminomethyl)-3-fluoropyridin-4-yl)-4-fluorobenzofuran-5-yl)methoxy)-5-fluorophenyl)acetic acid] as the molecule, how does the IC50 read?
**A.** Its IC50 is under 1 µM.

**Q.** How did the IC50 turn out when `NCc1cccc(-c2nc(C(=O)Nc3cccnc3CC(=O)O)c3cccn3n2)c1` [Compound 157d, 2-(3-(2-(3-(aminomethyl)phenyl)pyrrolo[2,1-f][1,2,4]triazine-4-carboxamido)pyridin-2-yl)acetic acid] was run?
**A.** Its IC50 is over 10 µM.

**Q.** How did the IC50 turn out when `NCc1ccc(CC(=O)O)c(OCc2cc(-c3cccc(CN)c3F)c3occc3c2)c1` [Compound 456c, 2-(4-(aminomethyl)-2-((7-(3-(aminomethyl)-2-fluorophenyl)benzofuran-5-yl)methoxy)phenyl)acetic acid] was run?
**A.** The IC50 was under 1 µM.

**Q.** For `Cn1ccc2c(-c3cccc(CN)c3)cc(C(=O)Nc3ccccc3CC(=O)O)cc21` [Compound 45e, 2-(2-(4-(3-(aminomethyl)phenyl)-1-methyl-1H-indole-6-carboxamido)phenyl)acetic acid], which IC50 is on record?
**A.** Its IC50 is under 1 µM.

**Q.** Which IC50 does the source give for `NC(CF)c1cccc(-c2cc(COc3ccccc3CC(=O)O)cc3ccoc23)c1` (stereo not drawn) [Compound 186c, 2-(2-((7-(3-(1-amino-2-fluoroethyl)phenyl)benzofuran-5-yl)methoxy)phenyl)acetic acid] here?
**A.** Its IC50 is under 1 µM.

**Q.** How did the IC50 turn out when `NCc1cccc(-c2cc(COc3ccccc3Cc3nn[nH]n3)cc3ccoc23)c1` [Compound 311b, (3-(5-((2-((2H-tetrazol-5-yl)methyl)phenoxy)methyl)benzofuran-7-yl)phenyl)methanamine] was run?
**A.** The IC50 was over 10 µM.

**Q.** For `NCc1cccc(-c2cc(COc3ccc(CN)cc3CC(=O)O)cc3ccoc23)c1` [Compound 331c, 2-(5-(aminomethyl)-2-((7-(3-(aminomethyl)phenyl)benzofuran-5-yl)methoxy)phenyl)acetic acid], which IC50 is on record?
**A.** Its IC50 is under 1 µM.

**Q.** For `NCc1cccc(-c2cc(COc3cc(CN)ccc3CC(=O)O)cc3cc(CO)oc23)c1` [Compound 446c, 2-(4-(aminomethyl)-2-((7-(3-(aminomethyl)phenyl)-2-(hydroxymethyl)benzofuran-5-yl)methoxy)phenyl)acetic acid], which IC50 is on record?
**A.** Its IC50 is under 1 µM.

**Q.** Which IC50 does the source give for `CC(C)c1ccc(CC(=O)O)c(OCc2cc(-c3cccc(CN)c3F)c3occc3c2)c1` [Compound 307f, 2-(2-((7-(3-(aminomethyl)-2-fluorophenyl)benzofuran-5-yl)methoxy)-4-isopropylphenyl)acetic acid] here?
**A.** Its IC50 is under 1 µM.

**Q.** `Cc1ccc(CC(=O)O)c(OCc2cc(-c3ccnc(CN)c3F)c3occc3c2F)c1` [Compound 342e, 2-(2-((7-(2-(aminomethyl)-3-fluoropyridin-4-yl)-4-fluorobenzofuran-5-yl)methoxy)-4-methylphenyl)acetic acid] was tested. Which IC50 did it give?
**A.** The IC50 was under 1 µM.

**Q.** With `COc1ccc(CC(=O)O)c(OCc2cc(-c3cccc(CN)c3F)c3occ(C(F)(F)F)c3c2)c1` [Compound 489b, 2-(2-((7-(3-(aminomethyl)-2-fluorophenyl)-3-(trifluoromethyl)benzofuran-5-yl)methoxy)-4-methoxyphenyl)acetic acid] as the molecule, how does the IC50 read?
**A.** Its IC50 is under 1 µM.

**Q.** Which IC50 does the source give for `CC(C)n1ccc2c(-c3cccc(CN)c3F)cc(COc3ccccc3CC(=O)O)cc21` [Compound 111b, 2-(2-((4-(3-(aminomethyl)-2-fluorophenyl)-1-isopropyl-1H-indol-6-yl)methoxy)phenyl)acetic acid] here?
**A.** Its IC50 is under 1 µM.

**Q.** For `CC(C)n1ccc2c(-c3cccc(CN)c3F)cc(COc3cc(F)ccc3CC(=O)O)cc21` [Compound 450b, 2-(2-((4-(3-(aminomethyl)-2-fluorophenyl)-1-isopropyl-1H-indol-6-yl)methoxy)-4-fluorophenyl)acetic acid], which IC50 is on record?
**A.** The IC50 was under 1 µM.

**Q.** `NCc1cccc(-c2c(F)c(COc3ccccc3CC(=O)O)cc3ccoc23)c1F` [Compound 516c, 2-(2-((7-(3-(aminomethyl)-2-fluorophenyl)-6-fluorobenzofuran-5-yl)methoxy)phenyl)acetic acid] was tested. Which IC50 did it give?
**A.** Its IC50 is under 1 µM.

**Q.** With `Cc1cc(NC(=O)c2nc(-c3cccc(CN)c3F)nn3cccc23)n(CC(=O)O)n1` [Compound 54d, 2-(5-(2-(3-(aminomethyl)-2-fluorophenyl)pyrrolo[2,1-f][1,2,4]triazine-4-carboxamido)-3-methyl-1H-pyrazol-1-yl)acetic acid] as the molecule, how does the IC50 read?
**A.** Its IC50 is over 10 µM.

**Q.** Which IC50 does the source give for `NCc1cccc(-c2cc(COc3ccccc3CC(=O)O)cc3cc(CCO)oc23)c1` [Compound 178g, 2-(2-((7-(3-(aminomethyl)phenyl)-2-(2-hydroxyethyl)benzofuran-5-yl)methoxy)phenyl)acetic acid] here?
**A.** Its IC50 is under 1 µM.

**Q.** How did the IC50 turn out when `Cc1cc(CC(=O)O)c(OCc2cc(-c3cccc(CN)c3F)c3occc3c2)cc1C` [Compound 427b, 2-(2-((7-(3-(aminomethyl)-2-fluorophenyl)benzofuran-5-yl)methoxy)-4,5-dimethylphenyl)acetic acid] was run?
**A.** The IC50 was under 1 µM.

**Q.** `NCc1cccc(-c2cc(C(=O)Nc3ccccc3CC(=O)O)cc3cccnc23)c1` [Compound 13c, 2-(2-(8-(3-(aminomethyl)phenyl)quinoline-6-carboxamido)phenyl)acetic acid] was tested. Which IC50 did it give?
**A.** Its IC50 is 1 to 10 µM.

**Q.** Which IC50 does the source give for `Cc1cc(-c2ccc(CC(=O)O)c(OCc3cc(-c4cccc(CN)c4)c4occc4c3)c2)cnc1F` [Compound 322c, 2-(2-((7-(3-(aminomethyl)phenyl)benzofuran-5-yl)methoxy)-4-(6-fluoro-5-methylpyridin-3-yl)phenyl)acetic acid] here?
**A.** Its IC50 is under 1 µM.

**Q.** With `NCc1cccc(-c2nc(C(=O)Nc3ccccc3CC(=O)O)nc3ccoc23)c1` [Compound 36h, 2-(2-(4-(3-(aminomethyl)phenyl)furo[3,2-d]pyrimidine-2-carboxamido)phenyl)acetic acid] as the molecule, how does the IC50 read?
**A.** Its IC50 is under 1 µM.

**Q.** Which IC50 does the source give for `NCc1cccc(-c2cc(COc3cc(F)ccc3CC(=O)O)cc3cc(F)oc23)c1` [Compound 520c, 2-(2-((7-(3-(aminomethyl)phenyl)-2-fluorobenzofuran-5-yl)methoxy)-4-fluorophenyl)acetic acid] here?
**A.** The IC50 was under 1 µM.

**Q.** `COCc1cc2cc(COc3ccc(F)cc3CC(=O)O)cc(-c3ccnc(CN)c3)c2o1` [Compound 529b, 2-(2-((7-(2-(aminomethyl)pyridin-4-yl)-2-(methoxymethyl)benzofuran-5-yl)methoxy)-5-fluorophenyl)acetic acid] was tested. Which IC50 did it give?
**A.** Its IC50 is under 1 µM.

**Q.** For `COc1cccc(CC(=O)O)c1OCc1cc(-c2ccnc(CN)c2)c2occc2c1` [Compound 512d, 2-(2-((7-(2-(aminomethyl)pyridin-4-yl)benzofuran-5-yl)methoxy)-3-methoxyphenyl)acetic acid], which IC50 is on record?
**A.** Its IC50 is under 1 µM.

**Q.** How did the IC50 turn out when `Cc1cc2cc(COc3cc(C#N)ccc3CC(=O)O)cc(-c3cccc(CN)c3)c2o1` [Compound 419c, 2-(2-((7-(3-(aminomethyl)phenyl)-2-methylbenzofuran-5-yl)methoxy)-4-cyanophenyl)acetic acid] was run?
**A.** Its IC50 is under 1 µM.

**Q.** With `NCc1cccc(-c2cc(COc3ccccc3CC(=O)O)cc3cc(Cc4ccccc4)oc23)c1` [Compound 377e, 2-(2-((7-(3-(aminomethyl)phenyl)-2-benzylbenzofuran-5-yl)methoxy)phenyl)acetic acid] as the molecule, how does the IC50 read?
**A.** The IC50 was under 1 µM.

**Q.** How did the IC50 turn out when `Cn1ccc2cc(COc3ccccc3CC(=O)O)cc(-c3cccc(CN)c3)c21` [Compound 218f, 2-(2-((7-(3-(aminomethyl)phenyl)-1-methyl-1H-indol-5-yl)methoxy)phenyl)acetic acid] was run?
**A.** Its IC50 is over 10 µM.

**Q.** `NCc1cccc(-c2cc(C(=O)Nc3ccccc3CC(=O)O)cc3ccccc23)c1` [Compound 18f, 2-(2-(4-(3-(aminomethyl)phenyl)-2-naphthamido)phenyl)acetic acid] was tested. Which IC50 did it give?
**A.** Its IC50 is under 1 µM.

**Q.** Which IC50 does the source give for `COc1ccc(CC(=O)O)c(OCc2cc(-c3ccnc(CN)c3)c3ccn(C(C)C)c3c2)c1` [Compound 447d, 2-(2-((4-(2-(aminomethyl)pyridin-4-yl)-1-isopropyl-1H-indol-6-yl)methoxy)-4-methoxyphenyl)acetic acid] here?
**A.** The IC50 was under 1 µM.

**Q.** How did the IC50 turn out when `NCc1cccc(-c2cc(COc3cc(F)ccc3CC(=O)O)c(F)c3ccoc23)c1` [Compound 484c, 2-(2-((7-(3-(aminomethyl)phenyl)-4-fluorobenzofuran-5-yl)methoxy)-4-fluorophenyl)acetic acid] was run?
**A.** The IC50 was under 1 µM.

**Q.** How did the IC50 turn out when `NCc1cccc(-c2cc(COc3ccccc3CC(=O)O)c3nccn3c2)c1` [Compound 71e, 2-(2-((6-(3-(aminomethyl)phenyl)imidazo[1,2-a]pyridin-8-yl)methoxy)phenyl)acetic acid] was run?
**A.** The IC50 was under 1 µM.

**Q.** For `NCc1cccc(-c2cc(COc3cc(-c4ccc(F)cc4)ccc3CC(=O)O)cc3ccoc23)c1` [Compound 398c, 2-(3-((7-(3-(aminomethyl)phenyl)benzofuran-5-yl)methoxy)-4′-fluoro-[1,1′-biphenyl]-4-yl)acetic acid], which IC50 is on record?
**A.** Its IC50 is under 1 µM.

**Q.** How did the IC50 turn out when `CCCc1cc2cc(COc3ccccc3CC(=O)O)cc(-c3ccnc(CN)c3F)c2o1` [Compound 190c, 2-(2-((7-(2-(aminomethyl)-3-fluoropyridin-4-yl)-2-propylbenzofuran-5-yl)methoxy)phenyl)acetic acid] was run?
**A.** Its IC50 is under 1 µM.

**Q.** `C[C@H](N)c1cccc(-c2cc(COc3ccccc3CC(=O)O)cc3ccoc23)c1F` [Compound 66c, (S)-2-(2-((7-(3-(1-aminoethyl)-2-fluorophenyl)benzofuran-5-yl)methoxy)phenyl)acetic acid] was tested. Which IC50 did it give?
**A.** Its IC50 is under 1 µM.

**Q.** For `Cc1cc(CN)cc(-c2cc(COc3ccccc3CC(=O)O)cc3ccoc23)c1` [Compound 89c, 2-(2-((7-(3-(aminomethyl)-5-methylphenyl)benzofuran-5-yl)methoxy)phenyl)acetic acid], which IC50 is on record?
**A.** Its IC50 is under 1 µM.

**Q.** Which IC50 does the source give for `Cc1cc2cc(COc3ccccc3CC(=O)O)cc(-c3ccnc(CN)c3)c2o1` [Compound 112c, 2-(2-((7-(2-(aminomethyl)pyridin-4-yl)-2-methylbenzofuran-5-yl)methoxy)phenyl)acetic acid] here?
**A.** Its IC50 is under 1 µM.

**Q.** With `NCc1cc(F)cc(-c2nc(C(=O)Nc3ccccc3CC(=O)O)c3cccn3n2)c1` [Compound 21d, 2-(2-(2-(3-(aminomethyl)-5-fluorophenyl)pyrrolo[2,1-f][1,2,4]triazine-4-carboxamido)phenyl)acetic acid] as the molecule, how does the IC50 read?
**A.** Its IC50 is under 1 µM.
